“Also recorded” adds a separate entry of the source.
What was measured:
GSPT1 [1] = target: T1, GSPT1 (Homo sapiens, UniProt P15170); experiment: Immunoblot analysis of Compound D-induced GSPT1 degradation in AML cells; format: cell-based
T1 construct: endogenous in cells; host or cells: KG-1 (TMT proteomics); KG1, U937 / U937-Cas9, MOLM-13, OCI-AML2 (immunoblots)
Description: (§1) FIG. 2A illustrates the volcano plot of differentially abundant proteins in response to Compound D treatment relative to the DMSO control. KG1 cells were treated with DMSO or 100 nM Compound D for 4 hours and subjected to TMT proteomics analysis. The X-axis denotes the log 2-fold change of Compound D versus the DMSO control for each protein. P-values were corrected for multiple hypothesis testing using the Benjamini-Hoschberg method to arrive at an adjusted-P-value (adj-P, also known as a false discovery rate). The y-axis denotes the −log 10 (adj-P) values indicating statistical significance such that proteins lying above the dotted red line are statistically significant findings with adjusted P-values<0.05. FIG. 2B illustrates the immunoblot analysis of KG1 and U937 cells treated with DMSO or Compound D for 4 hours. Where indicated, cells were pretreated with Bortezomib or MLN4924 for 30 minutes. FIGS. 2C and 2D illustrate the immunoblot analysis (FIG. 2C) and cell proliferation (FIG. 2D) of U937-Cas9 parental cells or cells stably transduced with lentiviral vectors expressing a non-targeting sgRNA (sgNT-1), a sgRNA targeting a non-coding region (sgNC-8), or a sgRNA targeting CRBN(sgCRBN-8). Cells were treated with DMSO or Compound D at indicated concentrations. FIGS. 2E and 2F illustrate the immunoblot analysis (left panel) and cell proliferation (right panel) of MOLM-13 (FIG. 2E) and OCI-AML2 (FIG. 2F) parental and CRBN−/− cells. Cells were treated with DMSO or Compound D at indicated concentrations. Results shown in all figure panels are representative of three biological replicates. Data in FIGS. 2D, 2E (right panel), and 2F (right panel) are shown as mean±SD, n=3 technical replicates.
(§2) FIG. 3A illustrates FLAG-HA tagged cereblon wild-type (FLAG-HA-CRBN) or Y384A/W386A mutant (FLAG-HA-YWAA) produced in 293FT CRBN−/− cells was used to capture V5 tagged GSPT1 (GSPT1-V5) and V5 tagged IKZF1 (IKZF1-V5) transiently expressed in 293FT CRBN−/− cells. […] FIG. 3B illustrates the surface representation of GSPT1 in complex with cereblon, DDB1 and Compound D, with DDB1 shown in purple, cereblon in blue, and GSPT1 in orange. The position of Compound D is shown with a white arrow. FIG. 3C illustrates the Fo-Fc omit electron density (green mesh) for Compound D (yellow sticks) contoured at 3.06. FIG. 3D illustrates GSPT1's interaction with cereblon is mediated by a β-hairpin loop. Hydrogen bond interactions between cereblon and the GPST1 β-hairpin are shown as yellow dashes. FIG. 3E illustrates details of the binding interface between cereblon and GSPT1. Compound D is represented as yellow sticks. Predicted polar interactions between Compound D and cereblon are shown as yellow dashes. FIG. 3F illustrates the immunoblot analysis of U937 parental cells or cells stably expressing HA-GSPT1-G575N. Cells were treated with DMSO or Compound D at the indicated concentrations. FIGS. 3G and 311 illustrate the immunoblot analysis (left panel) and cell proliferation (right panel) of MOLM-13 (FIG. 3G) and OCI-AML2 (FIG. 311) parental cells and cells stably expressing HA tagged GSPT1-G575N. Cells were treated with DMSO or Compound D at indicated concentrations.
(§3) Like all other cereblon modulators, Compound D contains a glutarimide ring (FIG. 1A) that can bind cereblon and redirect it to target neosubstrates for degradation. Thus, the effect of Compound D on the global proteome in AML cell line KG-1 was assessed using tandem mass tag (TMT) quantitative mass spectrometry.
(§4) Specifically, U937 cells stably expressing Cas9 were infected with lentiviral vectors constitutively expressing RFP and non-targeting or non-coding sgRNA (sgNT) controls, or sgRNAs targeting TSC1 or TSC2. Infected cells were selected with 1 μg/ml puromycin. […]

GSPT1 [2] = target: T2, GSPT1 (Homo sapiens, UniProt P15170, G437N); experiment: as above; format: cell-based; details: U937, MOLM-13, OCI-AML2 stably expressing HA-GSPT1-G575N
T2 construct: endogenous in cells; host or cells: KG-1 (TMT proteomics); KG1, U937 / U937-Cas9, MOLM-13, OCI-AML2 (immunoblots)
T2 sequence (P15170 1-637 isoform P15170-3 G575N): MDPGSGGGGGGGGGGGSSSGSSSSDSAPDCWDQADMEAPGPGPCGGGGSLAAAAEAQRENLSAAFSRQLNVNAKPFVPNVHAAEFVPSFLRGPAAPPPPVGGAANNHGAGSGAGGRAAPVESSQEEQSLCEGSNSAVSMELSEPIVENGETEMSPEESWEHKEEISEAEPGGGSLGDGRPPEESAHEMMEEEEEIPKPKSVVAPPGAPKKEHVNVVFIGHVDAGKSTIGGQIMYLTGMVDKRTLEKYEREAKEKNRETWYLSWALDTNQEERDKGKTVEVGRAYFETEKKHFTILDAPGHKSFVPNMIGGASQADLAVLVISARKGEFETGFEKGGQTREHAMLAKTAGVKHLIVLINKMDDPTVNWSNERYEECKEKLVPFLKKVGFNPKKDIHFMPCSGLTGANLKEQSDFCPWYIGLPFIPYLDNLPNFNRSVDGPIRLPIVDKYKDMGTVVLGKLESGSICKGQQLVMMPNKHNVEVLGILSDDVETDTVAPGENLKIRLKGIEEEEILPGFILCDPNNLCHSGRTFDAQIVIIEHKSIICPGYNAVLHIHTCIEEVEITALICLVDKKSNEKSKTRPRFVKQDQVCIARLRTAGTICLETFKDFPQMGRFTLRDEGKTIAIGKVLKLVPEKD
T2 sequence (Q96SW2 whole entry partner): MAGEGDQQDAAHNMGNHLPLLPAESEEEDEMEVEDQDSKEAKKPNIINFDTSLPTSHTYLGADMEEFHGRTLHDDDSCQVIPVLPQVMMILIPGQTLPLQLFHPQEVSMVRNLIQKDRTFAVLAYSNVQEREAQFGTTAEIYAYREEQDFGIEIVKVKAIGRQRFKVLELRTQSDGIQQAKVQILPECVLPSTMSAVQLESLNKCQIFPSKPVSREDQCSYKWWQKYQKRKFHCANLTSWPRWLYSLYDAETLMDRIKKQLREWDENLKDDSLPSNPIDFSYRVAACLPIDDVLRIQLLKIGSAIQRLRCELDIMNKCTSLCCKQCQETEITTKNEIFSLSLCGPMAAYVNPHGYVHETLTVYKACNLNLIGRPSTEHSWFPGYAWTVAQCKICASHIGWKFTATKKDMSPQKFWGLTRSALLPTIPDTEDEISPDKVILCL
T2 sequence (Q16531 2-1140 partner): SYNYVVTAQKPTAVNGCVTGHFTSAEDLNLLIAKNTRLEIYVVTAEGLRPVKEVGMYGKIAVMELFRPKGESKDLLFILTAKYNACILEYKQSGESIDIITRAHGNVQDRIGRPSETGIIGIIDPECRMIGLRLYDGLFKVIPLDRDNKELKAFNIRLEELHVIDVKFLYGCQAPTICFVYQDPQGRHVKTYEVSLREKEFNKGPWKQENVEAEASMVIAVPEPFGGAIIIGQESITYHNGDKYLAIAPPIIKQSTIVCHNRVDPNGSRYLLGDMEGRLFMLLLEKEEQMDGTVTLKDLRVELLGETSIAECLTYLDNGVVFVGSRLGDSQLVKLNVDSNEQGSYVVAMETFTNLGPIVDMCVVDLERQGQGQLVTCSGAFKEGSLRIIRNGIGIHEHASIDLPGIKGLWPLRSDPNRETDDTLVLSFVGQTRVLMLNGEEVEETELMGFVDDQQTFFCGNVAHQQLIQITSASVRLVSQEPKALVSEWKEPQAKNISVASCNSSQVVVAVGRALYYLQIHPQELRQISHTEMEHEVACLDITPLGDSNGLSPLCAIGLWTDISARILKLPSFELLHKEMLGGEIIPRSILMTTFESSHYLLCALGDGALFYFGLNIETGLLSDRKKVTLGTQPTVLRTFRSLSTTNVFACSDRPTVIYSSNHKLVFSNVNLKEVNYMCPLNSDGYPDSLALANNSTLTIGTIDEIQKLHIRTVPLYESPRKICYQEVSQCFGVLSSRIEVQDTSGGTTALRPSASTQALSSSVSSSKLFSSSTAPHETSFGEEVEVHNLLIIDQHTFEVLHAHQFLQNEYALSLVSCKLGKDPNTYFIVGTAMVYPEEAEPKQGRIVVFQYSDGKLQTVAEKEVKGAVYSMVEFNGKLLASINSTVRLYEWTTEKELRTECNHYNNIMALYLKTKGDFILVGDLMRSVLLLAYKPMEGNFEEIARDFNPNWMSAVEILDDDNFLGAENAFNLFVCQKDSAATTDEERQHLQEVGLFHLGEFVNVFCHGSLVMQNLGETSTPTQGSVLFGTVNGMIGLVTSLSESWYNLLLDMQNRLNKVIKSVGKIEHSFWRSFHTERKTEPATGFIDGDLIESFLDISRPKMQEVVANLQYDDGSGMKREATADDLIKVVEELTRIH
Description: as §1, §2, §3, §4

[3] = system: U937 Cas9 cell lines and OCI-AML2 Cas9 cell lines; experiment: Cell proliferation assay (CTG, 5 days) in sgRNA knockout Cas9 lines; format: cell-based, human
Description: Then, a cell proliferation assay was performed. Compound D dissolved in DMSO was injected into 96-well cell culture plates using a HP D300 digital dispenser in triplicate Compound D concentrations. One week after infection to knock-out the indicated genes, each of U937 Cas9 cell lines and OCI-AML2 Cas9 cell lines were plated in triplicate with 5000 cells in 100 μL complete culture media per well in the 96-well plates. After 5 days, cell proliferation was assessed using CTG (CellTiter-Glo) according to the manufacturer's instructions to assess the effects of Compound D on proliferation of each cell line.

U937 GCN2-/- cells = experiment: Immunoblot and proliferation (CTG, day 3) of U937 GCN2-/- cells re-expressing GCN2; format: cell-based, human; details: not with mutants T899A/T904A, K619R, F1143L/R1144L
Description: The U937 GCN2−/− cell line is derived from a single clone of U937 parental cells stably infected with a lentiviral CRISPR vector targeting GCN2. […] Cells were incubated with DMSO or 200 nM Compound D and lysed at the indicated time points. Arrows pointing to bands in the blot on the right designate the cleaved forms of caspase-3. […] The U937 GCN2−/− cell line is derived from a single clone of U937 parental cells stably infected with a lentiviral CRISPR vector targeting GCN2. […] Cells were treated with DMSO or Compound D for 24 hours. On day 3 after Compound D treatment, cell proliferation was assessed by CTG. Result shown in all figure panels is representative of at least three biological replicates. Data in FIGS. 13C, 13D and 13E are shown as mean±SD, n=3 technical replicates.
To determine if the activation of the ISR by Compound D is solely mediated by GCN2, the effect of GCN2 ablation on Compound D response was evaluated.

GSPT1 [4] = target: T3, GSPT1 (Homo sapiens, UniProt P15170+Q96SW2); experiment: Tandem mass tag (TMT) quantitative mass spectrometry of the global proteome in KG-1; format: cell-based; details: 0.1 μM, 4 hours
T3 construct: endogenous in cells; host or cells: KG-1 (TMT proteomics); KG1, U937 / U937-Cas9, MOLM-13, OCI-AML2 (immunoblots)
T3 sequence (P15170 1-637 isoform P15170-3): as the sequence (P15170 1-637 isoform P15170-3 G575N) above, with N575G counted along it
T3 sequence (Q96SW2 whole entry): as the sequence (Q96SW2 whole entry partner) above
T3 sequence (Q16531 whole entry partner): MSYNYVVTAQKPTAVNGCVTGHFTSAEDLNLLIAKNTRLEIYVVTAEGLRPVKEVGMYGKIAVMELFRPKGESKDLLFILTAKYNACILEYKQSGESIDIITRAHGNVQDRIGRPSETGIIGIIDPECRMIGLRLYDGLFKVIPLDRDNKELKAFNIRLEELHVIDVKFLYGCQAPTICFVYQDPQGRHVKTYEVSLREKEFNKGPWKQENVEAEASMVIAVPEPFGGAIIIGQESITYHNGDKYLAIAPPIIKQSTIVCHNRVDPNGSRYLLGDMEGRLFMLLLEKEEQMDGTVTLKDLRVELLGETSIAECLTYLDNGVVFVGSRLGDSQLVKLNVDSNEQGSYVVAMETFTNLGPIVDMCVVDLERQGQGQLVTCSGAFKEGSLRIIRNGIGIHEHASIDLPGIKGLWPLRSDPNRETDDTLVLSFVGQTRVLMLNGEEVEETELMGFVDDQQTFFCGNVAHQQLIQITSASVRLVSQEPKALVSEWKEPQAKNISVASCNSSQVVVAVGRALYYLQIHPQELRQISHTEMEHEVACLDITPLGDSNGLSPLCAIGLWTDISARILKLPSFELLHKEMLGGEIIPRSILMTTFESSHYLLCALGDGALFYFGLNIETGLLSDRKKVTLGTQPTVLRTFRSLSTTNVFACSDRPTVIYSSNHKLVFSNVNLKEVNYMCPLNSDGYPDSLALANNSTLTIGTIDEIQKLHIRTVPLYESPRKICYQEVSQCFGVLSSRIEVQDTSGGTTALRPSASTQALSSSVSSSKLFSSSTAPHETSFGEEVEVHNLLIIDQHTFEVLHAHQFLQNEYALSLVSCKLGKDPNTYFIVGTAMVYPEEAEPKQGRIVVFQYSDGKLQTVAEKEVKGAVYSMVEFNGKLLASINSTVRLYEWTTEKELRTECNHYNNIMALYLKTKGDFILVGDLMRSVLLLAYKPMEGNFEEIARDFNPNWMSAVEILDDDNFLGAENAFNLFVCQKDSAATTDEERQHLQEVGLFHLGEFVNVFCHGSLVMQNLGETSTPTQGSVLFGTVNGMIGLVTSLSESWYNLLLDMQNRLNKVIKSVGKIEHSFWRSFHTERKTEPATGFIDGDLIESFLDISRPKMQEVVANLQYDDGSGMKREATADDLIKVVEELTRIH
Description: FIG. 2A illustrates the volcano plot of differentially abundant proteins in response to Compound D treatment relative to the DMSO control. KG1 cells were treated with DMSO or 100 nM Compound D for 4 hours and subjected to TMT proteomics analysis. The X-axis denotes the log 2-fold change of Compound D versus the DMSO control for each protein. P-values were corrected for multiple hypothesis testing using the Benjamini-Hoschberg method to arrive at an adjusted-P-value (adj-P, also known as a false discovery rate). The y-axis denotes the −log 10 (adj-P) values indicating statistical significance such that proteins lying above the dotted red line are statistically significant findings with adjusted P-values<0.05. FIG. 2B illustrates the immunoblot analysis of KG1 and U937 cells treated with DMSO or Compound D for 4 hours. Where indicated, cells were pretreated with Bortezomib or MLN4924 for 30 minutes. […]
as §3

AML cell lines = experiment: Cell proliferation assay (CTG) in AML cell lines, 72 hours; format: cell-based, human; details: 11 AML cell lines, Day 3
Description: On Day 3, cell proliferation was assessed by the Cell-Titer Glo (CTG) assay.
For cell proliferation assays, human cancer cell lines cultured in the growth medium recommended by the vendor (as described above) were seeded into black 384-well plates containing DMSO or test compounds. The seeding density of each cell line was optimized to allow for cell growth in the linear growth phase during a 3-day culture period. To test the compounds' effect on cell proliferation in AML cell lines, 5,000 to 10,000 cells per well in 200 L complete culture media were seeded into black 96-well plates containing DMSO or test compounds. After 72 hours, cell proliferation was assessed using the CTG assay according to the manufacturer's instructions. […] Relative cell proliferation was normalized against cell growth values on day 4. The growth inhibitory curve was processed and graphed using GraphPad Prism Version 7 (P<0.05, unpaired two-sided t-test, is considered as significant).

T1 sequence (P15170 1-637 isoform P15170-3): as the sequence (P15170 1-637 isoform P15170-3 G575N) above, with N575G counted along it
T1 sequence (Q96SW2 whole entry partner): as the sequence (Q96SW2 whole entry partner) above
T1 sequence (Q16531 2-1140 partner): as the sequence (Q16531 2-1140 partner) above

For O=C1CCC(N2Cc3cc(CNC(=O)C(F)(F)c4ccc(Cl)cc4)ccc3C2=O)C(=O)N1 (stereo not drawn) [Compound D, 2-(4-chlorophenyl)-N-((2-(2,6-dioxopiperidin-3-yl)-1-oxoisoindolin-5-yl)methyl)-2,2-difluoroacetamide], the “downregulation of GSPT1 by Compound D under bortezomib, MLN4924 or knockout of CRBN” value (GSPT1 [1]; KG1, U937, MOLM-13, OCI-AML2, pretreatment 30 minutes) was “completely blocked”, the “Compound D induced GSPT1 degradation after ILF2 or ILF3 knockout” value (GSPT1 [1]; U937, OCI-AML2) was “drastically reduced cereblon protein levels, and hence Compound D-induced GSPT1 degradation; also recorded: attenuated Compound D induced GSPT1 degradation” and the “GSPT1 expression, cotreatment with cycloheximide” value (GSPT1 [1]; U937-Cas9 parental) was “downregulated GSPT1 expression”. For the same compound, the “GSPT1 expression, cotreatment with cycloheximide, TSC1 or TSC2 loss” value (GSPT1 [1]; U937 TSC1-/- and TSC2-/-) was “largely abrogated this effect”, the “Compound D induced GSPT1 degradation after TSC1 or TSC2 knockout” value (GSPT1 [1]; U937 and OCI-AML2) was “partially blocked GSPT1 degradation induced by Compound D; also recorded: Attenuated Compound D induced GSPT1 degradation” and the “Compound D-induced degradation of GSPT1-G575N” value (GSPT1 [2]) was “conferred complete resistance to Compound D-induced degradation”. The “anti-proliferative effects after depletion of TSC1 and TSC2” value ([3]; U937) was “diminished this effect”, the “anti-proliferative effects in control cells” value ([3]; parental, sgNT-1 and sgNC-8 controls) was “dose-dependent anti-proliferative effects” and the “response after reintroduction of GCN2 wild-type” value (U937 GCN2-/- cells) was “significantly restored the response to Compound D”. For the same compound, the GSPT1 protein abundance (GSPT1 [4]) was “significant reduction of GSPT1 protein abundance”, the “effect on the rest of the proteome” value (GSPT1 [4]) was “minimal effect on the rest of the proteome” and the anti-proliferative activity (AML cell lines) was “potent anti-proliferative activity in 10 out of 11 AML cell lines”.
